One test deals with T1, plasminogen (Mus musculus, UniProt P20918).
T1 construct: Burn wounds were introduced to three WT mice and TXA (800 mg/kg) was injected three times at 8 h intervals; from tissue; host or cells: skin of wild-type mice (burn wound), in vivo
As to the kind of experiment: Burn wound model: plasminogen accumulation in wound skin extracts (ELISA). The format is in vivo. The conditions noted are these: WT mice, TXA 800 mg/kg injected three times at 8 h intervals, skin at 24 h after wounding, compared to mice treated with PBS. The procedure:
Dorsal skin samples from irradiated and not-irradiated control mice were homogenized in a lysis buffer (50 mM Tris-HCl buffer pH 8.0 with 120 mM NaCl, 1 mM EDTA, 6 mM EGTA, 1% NP-40 and 1 mM DTT) supplemented with PhosSTOP phosphatase inhibitors and Complete Ultra mini protease inhibitor cocktail tablets (both from Roche, Basel, Switzerland). The skin extracts were then kept at −20° C. until use. Total protein concentration in the extracts was quantified using Pierce BCA protein assay kit, according to the manufactural instruction (ThermoFisher Scientific, Waltham, U.S.A). Mouse IL-6 and TNF-alpha levels in the extracts were measured using specific ELISA kits from eBioscience (San Diego, U.S.A). Mouse plasminogen was quantified with a mouse plasminogen-specific ELISA (Omnio AB, Umeå, Sweden).
Mice were anesthetized with Dormicum/Hypnorm and burn wounds were made with a brass stave as described previously (Shen et al. 2012, Blood 119:5879). The mice were given a single injection of Temgesic (Schering-Plough, Brussels, Belgium) the day after burning. All mice were individually caged, and wounds were neither sutured nor dressed.
Initially, the burn wound model (Shen et al. 2012, Blood 119:5879) was used to test whether TXA has an effect on plasminogen accumulation in the wound. […]
A general note: An ELISA detects its analyte on a solid surface through an enzyme-linked reagent.

Test [1] deals with radiation-induced dermatitis. The test is described as follows: Radiation-induced dermatitis model (15 Gy to dorsal skin), radio-dermatitis documented by photos and scored. Format: in vivo, mouse. The conditions noted are these: for development and severity of radio-dermatitis: irradiated WT mice. On the procedure:
Dorsal skin of mice had been shaved 3 days prior to irradiation. For the irradiation, the mice were anesthetized by intraperitoneal injection of 150 μl mixture containing Ketaminol vet. (Intervet AB, Sollentuna, Sweden) and Dormitor vet. (Orion Pharma AB, Espoo, Finland). Mice were laid into a lead box to protect the whole body from irradiation, while the dorsal skin was gently stretched out through a 4 cm-long gap in the bottom of the box and maintained with medical tape. Irradiation box with a mouse was then placed in Gammacell 40 exactor (Ashford, UK) that has two Caesium-137 sources. Irradiation was given as a single dose of 1 Gy per minute over 15 min (total dose 15 Gy).
Digital photographs of the dorsal skin were taken on the specified days after irradiation. The wound size was quantified using Image J (National Institute of Mental Health, Bethesda, Md.). Severity of radio-dermatitis was scored, with the scores defined as: 0=normal, 1=erythema, 2=desquamation, 3=ulcer.
WT and plg^+/− were intraperitoneally injected with 800 mg/kg of TXA in PBS three times per day. The injections started 2 days before the irradiation and continued for 15 days after the irradiation. Development of dermatitis was documented by digital photos and skin samples were analyzed as described in Example 2.
(§1) In this experiment, mice were treated as in Example 3, with the exception that TXA was given in drinking water in dose 700 mg/kg/day. Real-time PCR was performed as described in Example 3.

For the next test, the system named is IL-1β. As to the kind of experiment: Quantitative RT-PCR of irradiated skin: IL-1β mRNA. The format is in vivo, mouse. The following applies: irradiated WT mice, TXA in drinking water, day 9 after irradiation. On the procedure: (§2) Skin samples were homogenized in TRIzol (Ambion) using Precellys CK28R tubes on a Precellys 24 homogenizer (both from Bertin Technologies, France) according to the manufacturer's instructions. Total RNA was extracted with PureLink RNA Mini Kit (Ambion) according to the manufacturer's instruction. 2.5 μg of total RNA was reverse transcribed using Superscript VILO cDNA synthesis kit (Invitrogen) and diluted 3 fold with DEPC-water. Expression of genes were analyzed using quantitative real-time PCR with Comparative CT method and with TBP mRNA as the internal reference gene. The gene-specific primers and probes (TaqMan Gene Expression Assays) were from Applied Biosytems, and 2× SsoAdvanced Universal Probes Supermix was from BIO-RAD. Each sample was run in triplicate on StepOnePlus Instrument (Applied Biosystems) using real-time PCR cycling conditions for 2× SsoAdvanced Universal Probes Supermix.
as §1

For a further test, the system named is IL-6. As to the kind of experiment: Quantitative RT-PCR of irradiated skin: IL-6 mRNA. Format: in vivo, mouse. The conditions noted are these: irradiated WT mice, TXA in drinking water, day 9 after irradiation. On the procedure:
as §2, §1

Another test deals with TGF-β. The test is described as follows: Quantitative RT-PCR of irradiated skin: TGF-β mRNA. The conditions noted are these: irradiated WT mice, TXA in drinking water, day 9 after irradiation. Format: in vivo, mouse. On the procedure: as §2, §1
For a further test, the system named is PAI-1. As to the kind of experiment: Quantitative RT-PCR of irradiated skin: PAI-1 mRNA. The format is in vivo, mouse. The following applies: irradiated WT mice, TXA in drinking water, day 9 after irradiation. On the procedure: as §2, §1

T1 sequence (P20918 20-812 limits assumed): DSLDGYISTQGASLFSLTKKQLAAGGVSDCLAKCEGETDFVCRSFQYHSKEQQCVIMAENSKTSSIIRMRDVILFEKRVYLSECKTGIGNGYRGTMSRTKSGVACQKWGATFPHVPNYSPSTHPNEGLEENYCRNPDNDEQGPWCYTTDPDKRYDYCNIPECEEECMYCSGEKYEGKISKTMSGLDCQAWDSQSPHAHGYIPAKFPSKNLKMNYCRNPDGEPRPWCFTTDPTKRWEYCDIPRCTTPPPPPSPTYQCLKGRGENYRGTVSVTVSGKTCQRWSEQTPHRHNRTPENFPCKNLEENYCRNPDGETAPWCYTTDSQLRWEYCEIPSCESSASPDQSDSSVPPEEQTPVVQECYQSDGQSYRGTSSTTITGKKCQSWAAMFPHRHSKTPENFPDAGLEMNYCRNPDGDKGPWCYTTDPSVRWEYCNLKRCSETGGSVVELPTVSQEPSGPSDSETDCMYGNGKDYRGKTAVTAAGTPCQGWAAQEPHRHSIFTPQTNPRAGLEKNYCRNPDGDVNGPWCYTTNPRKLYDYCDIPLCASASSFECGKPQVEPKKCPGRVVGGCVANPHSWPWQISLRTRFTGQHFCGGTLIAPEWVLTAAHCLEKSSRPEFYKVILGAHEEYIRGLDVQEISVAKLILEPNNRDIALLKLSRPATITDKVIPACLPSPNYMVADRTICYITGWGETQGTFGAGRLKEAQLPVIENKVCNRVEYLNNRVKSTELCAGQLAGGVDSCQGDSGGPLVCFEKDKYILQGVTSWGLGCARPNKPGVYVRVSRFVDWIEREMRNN

On to `NC[C@H]1CC[C@H](C(=O)O)CC1` [TXA, trans-4 (aminomethyl) cyclohexanecarboxylic acid], for which the “inhibition of plasminogen accumulation in wounds” value at plasminogen is reported as 50%. For the same molecule, the “development and severity of radio-dermatitis” value in test [1] (TXA 800 mg/kg intraperitoneally three times per day, from 2 days before to 15 days after irradiation, vs carrier) is “delayed development of dermatitis and with a lower severity”; in test [1] (TXA in drinking water 700 mg/kg/day, vs control WT mice treated with water only), “significant delay in development of radio-dermatitis and a lower severity of skin damage”. For the same molecule, in test [1] (irradiated plg+/- mice, TXA 800 mg/kg intraperitoneally three times per day, from 2 days before to 15 days after irradiation), the development of radio-dermatitis entry is listed as “completely blocked”. The formation of radiodermatitis entry in test [1] (irradiated plg+/- mice, TXA in drinking water 700 mg/kg/day) is “totally inhibited formation of radiodermatitis”. Further, in the test with IL-1β, the “level of IL-1β expression in skin” value was “very low”. In addition, the “expression of IL-6 in skin” value in the test on IL-6 is on record as “decreased expression”. Besides, the “expression of TGF-β in skin” value with TGF-β is given as “decreased expression”. In the test on PAI-1, the “expression of PAI-1 in skin” value is “decreased expression”.

Source of the values: patent US20180280329A1, “INHIBITORS OF PLASMINOGEN FOR TREATING, REDUCING OR PREVENTING RADIATION-INDUCED INJURIES” (OMNIO AB, priority 2015, published 2018).
